Measured values reported in the NIST ThermoML archive (doi:10.1021/je0603022).

Legend:
[1] = Liquid, Ebulliometric method (Recirculating still)
[2] = refractive index (Na D-line) (dimensionless); conditions: 101.33 kPa, Liquid, Standard Abbe refractometry
[3] = refractive index (Na D-line) (dimensionless); xn = mol fraction of the nth substance listed; conditions: 293.15 K, 101.3 kPa, Liquid, Standard Abbe refractometry

C=CCCCC [hex-1-ene]
Conditions	refractive index	vapor or sublimation pressure [kPa]
[1], 298.99 K	–	25.68
[1], 302.85 K	–	30.13
[1], 306.73 K	–	35.19
[1], 310.9 K	–	41.41
[1], 316.17 K	–	50.46
[1], 320.92 K	–	59.91
[1], 323.15 K	–	64.82
[1], 325.41 K	–	70.09
[1], 329.11 K	–	79.46
[1], 330.99 K	–	84.63
[1], 332.94 K	–	90.24
[1], 333.15 K	–	90.94
[1], 336.04 K	–	99.73
[2], 293.15 K	1.3881	–
[2], 298.15 K	1.3851	–

CCCCCC [hexane]
Conditions	refractive index	vapor or sublimation pressure [kPa]
[1], 307.31 K	–	29.67
[1], 311.36 K	–	34.86
[1], 314.93 K	–	40.02
[1], 316.81 K	–	43.01
[1], 321.97 K	–	52.02
[1], 323.15 K	–	54.25
[1], 326.94 K	–	62.11
[1], 331 K	–	71.39
[1], 335.54 K	–	83.09
[1], 338.15 K	–	90.44
[1], 338.59 K	–	91.73
[1], 342 K	–	102.27
[2], 293.15 K	1.3751	–
[2], 298.15 K	1.3724	–

Cc1ccccc1 [toluene]
Conditions	refractive index
[2], 298.15 K	1.4939

c1ccsc1 [thiophene] + CCCCCC
[3]
Conditions	refractive index
x1 = 0.027	1.3774
x1 = 0.05	1.3794
x1 = 0.08	1.3822
x1 = 0.096	1.3836
x1 = 0.194	1.3933
x1 = 0.292	1.4039
x1 = 0.394	1.4161
x1 = 0.494	1.4296
x1 = 0.588	1.4438
x1 = 0.697	1.4624
x1 = 0.797	1.4814
x1 = 0.897	1.5034
x1 = 0.919	1.5084
x1 = 0.949	1.5158
x1 = 0.974	1.5219
x1 = 1	1.5287

c1ccsc1 [thiophene]
Conditions	refractive index, 293.15 K	refractive index, 298.15 K	vapor or sublimation pressure, 323.15 K [kPa]	vapor or sublimation pressure, 333.15 K [kPa]	vapor or sublimation pressure, 338.15 K [kPa]
[1]	–	–	31.21	45.44	54.27
[2]	1.5287	1.5255	–	–	–

CCCCCC [hexane] + c1ccsc1
Conditions	refractive index
[3], x2 = 0	1.3751

c1ccsc1 [thiophene] + C=CCCCC
[3]
Conditions	refractive index
x1 = 0.024	1.3903
x1 = 0.051	1.3926
x1 = 0.076	1.3949
x1 = 0.094	1.3966
x1 = 0.185	1.4055
x1 = 0.288	1.4163
x1 = 0.378	1.4266
x1 = 0.486	1.4402
x1 = 0.579	1.453
x1 = 0.683	1.4688
x1 = 0.788	1.4866
x1 = 0.89	1.5058
x1 = 0.91	1.5097
x1 = 0.948	1.5174
x1 = 0.974	1.523
x1 = 1	1.5287

C=CCCCC [hex-1-ene] + c1ccsc1
Conditions	refractive index
[3], x2 = 0	1.3881
